Usually mortality stands for the percentage killed. Low values mean a weak lethal effect, high ones a strong lethal effect.

For this data set, the system named is Danio rerio embryos. Conditions: 96 h exposure, cyclophosphamide solution 1306 mg L^-1.
The mark [1] stands for this setting: materials: maintenance water after 1.5 h contact with the material.

Experimental: Aiming to identify the ability of this material to decrease and/or remove the toxicity of the water samples treated, an ecotoxicity test was carried out resorting to assays with Danio rerio embryos. […] Assays with embryos of D. rerio were performed according to the Organisation for Economic Co-operation and Development (OECD) guideline 236 on Fish Embryo Acute Toxicity (FET) Test (OECD, 2013), with small adaptations.
Zebrafish embryos were exposed for 96 h, at a temperature of 26 ± 1 °C and a 16:8h light/dark photoperiod, and observations were made at each 24 h (i.e., 24, 48, 72, and 96 hours) with the help of a stereomicroscope (Zoom-SMZ 1500, Nikon Corporation).
In an embodiment, besides the mortality endpoint (that included coagulated eggs, arrested development, or lack of heartbeat), the sublethal endpoints concerning the hatching rate, final body length, and malformations (such as tail and skeletal malformations, oedemas, and delayed development) (Lammer et al. 2009; "Is the fish embryo toxicity test (FET) with the zebrafish (Danio rerio) a potential alternative for the fish acute toxicity test?" Comp. Biochem. Physiol. Part - C: Toxicol. Pharmacol. 149 (2):196 - 209) were also evaluated. […] Mortality, hatching rate, and percentage of abnormalities were expressed considering the total number of embryos exposed to the different treatments, while the final body length endpoint was evaluated concerning the number of alive larvae at the end of the assay.

`O=P1(N(CCCl)CCCl)NCCCO1` (stereo not drawn) [cyclophosphamide]: for the setting “control 5.4 ± 0.2 cm”, the “final body length of zebrafish larvae (average length)” value stood at 4.4 ± 0.4 cm. Under setting [1], this compound had a malformations of 52% and a mortality of 20%.
